In patent publication US8153787B2 (priority 2005, dated 2012):
In brackets after ≈: the same amount, converted by molar mass. Like-named read-outs stand apart in the source and are kept apart here.

What was measured:
[1] = tested on: Varicella-Zoster Virus (VZV); test: microbe, parasite or virus in culture; type: cell-based; settings: for EC50: Human alphaherpesvirus 3, HEL
[2] = tested on: Human Cytomegalovirus (HCMV); test: microbe, parasite or virus in culture; type: cell-based
Cowpox virus (Brighton) [3] = test: microbe, parasite or virus in culture; type: cell-based
Orf virus (NZ2) [4] = test: microbe, parasite or virus in culture; type: cell-based
[5] = tested on: herpes simplex virus type 1 (HSV-1); test: microbe, parasite or virus in culture; type: cell-based; settings: Human alphaherpesvirus 1, HEL, read-out: EC50 HSV-1 (Kos strain)
[6] = tested on: herpes simplex virus type 2 (HSV-2); test: microbe, parasite or virus in culture; type: cell-based; settings: Human alphaherpesvirus 2, HEL, read-out: EC50 HSV-2 (G strain)
[7] = tested on: primate polyomavirus (SV40); test: microbe, parasite or virus in culture; type: cell-based, simian polyomavirus SV40; settings: Polyomavirus sp., BSC-1, in Primates
murine polyomavirus = test: microbe, parasite or virus in culture; type: cell-based; settings: Alphapolyomavirus muris, UC1, UC1B
[8] = tested on: Molluscum contagiosum virus (MCV) clinical isolates; test: microbe, parasite or virus in culture; type: cell-based; settings: Keratinocyte
[9] = tested on: vaccinia virus (Lederle strain); test: microbe, parasite or virus in culture; type: cell-based; settings: Orthopoxvirus vaccinia, HEL
HSV-1 (KOS) = tested on: HSV-1 (KOS); parameters: species or system mice; settings: mouse, in vivo, sc
Cowpox virus (Brighton) [10] = tested on: Cowpox virus (Brighton); parameters: species or system mice; settings: mouse, in vivo, sc
Vaccinia Virus (WR) = type: in vivo, mice; settings: after 20 days
pox tail lesions = test: Pox tail lesion model; type: in vivo
[11] = tested on: human cervical carcinoma xenografts (HeLa, CaSki cells); test: Human cervical carcinoma xenografts (HeLa, CaSki) in athymic nude mice, FIG. 12; type: in vivo; settings: 5 and 10 mg/mL doses, intratumoral
Description: FIGS. 12 A and B show the activity of (S)-HPMP-5-azacytosine compared to (S)-HPMPC against human papillomavirus in human cervical carcinoma xenografts in athymic nude mice. (A) Adult animals were injected subcutaneously with 5×10^6 HeLa cells, a human cervical carcinoma cell line which harbors integrated human papillomavirus […]. Once the tumors were established (approximately after 1 week), the mice were divided in several groups, the tumor size for each mouse was determined, and treatment with placebo (PBS) or the test compounds was started. The test solutions were administered intratumorally at a volume of 50 μl. Mice were treated once a day, 5 times a week for a period of 5 weeks. Every week, the tumor size for each animal was measured with a caliper in two perpendicular dimensions and tumor size was calculated by multiplying the two measured diameters. […] Once the tumors were established (approximately after 1 week), the mice were divided in several groups, the tumor size for each mouse was determined, and treatment with placebo (PBS) or the test compounds was started. […] Every week, the tumor size for each animal was measured with a caliper in two perpendicular dimensions and tumor size was calculated by multiplying the two measured diameters.

Vaccinia virus = type: cell-based
[12] = tested on: Vaccinia virus (Lederle, Lister, W R and Copenhagen); type: cell-based
Cowpox virus (Brighton) [13] = type: cell-based
Orf virus (NZ2) [14] = type: cell-based
[15] = Decomposition in aqueous solution (sym-triazine ring opening); type: physicochemical; settings: in words
Source text: The first step is a reversible opening of the sym-triazine ring to the N-formylguanidine derivative which can close back to the cyclic structure. This step occurs in presence of a trialkylammonium buffer, e.g. triethylammonium hydrogenocarbonate (TEAB), triethylammonium hydroxide or triethylammonium acetate. This hydrolytic reaction is slow and reaches equilibrium within several days. It is accompanied by loss of UV-absorption which allows to determine its course.
Though this reaction is generally controlled by acidobasic catalysis, it could be eventually speeded up (or slowed down) in vivo by the action of enzymes.
The reaction course was monitored by measurement of absorption maximum decrease in UV spectrum at λmax 245 nm. For each measurement 10 μl sample of reaction mixture was diluted with water to overall volume 3 ml and absorbance value at 245 nm determined. Equilibrium was reached when no more decrease of absorbance occurred. The reaction mixture was evaporated to dryness, coevaporated with water (5×3 ml) and then with methanol (2×3 ml). The residue in water (3 ml) was applied onto a column of Dowex 50 (Na^+ form, 20 ml) and the column eluted with water. UV absorbing eluate was evaporated and lyophilized to give 105 mg (92%) of a sodium salt of 3a as a colourless amorphous material.

HEL cells = settings: human
HSB-2 cells = settings: human
[16] = mouse, in vivo
in vitro [17] = settings: African green monkey
in vitro [18] = settings: mouse
in vitro [19] = settings: human

## Nc1ncn(C[C@@H](CO)OCP(=O)(O)O)c(=O)n1 [Compound 3, (S)-1-[3-hydroxy-2-(Phosphonomethoxy)propyl]-5-azacytosine]
[1]
  activity against VZV (Oka, YS, YS-R and 07-1) in HEL cells: significant activity
[1]; read-out: EC50 VZV 07/1 strain (HEL cells)
  EC50: 0.019 µg/mL (≈ 0.0678 µM)
[1]; read-out: EC50 VZV OKA strain (HEL cells)
  EC50: 0.027 µg/mL (≈ 0.0964 µM)
[1]; read-out: EC50 VZV YS strain (HEL cells)
  EC50: 0.039 µg/mL (≈ 0.139 µM)
[1]; read-out: EC50 VZV YS-R strain (HEL cells)
  EC50: 0.015 µg/mL (≈ 0.0535 µM)
[2]
  activity against CMV (AD-169 and Davis) in HEL cells: significant activity
[2]; Human betaherpesvirus 5, AD169, HEL, read-out: EC50 HCMV AD-169 strain (HEL cells)
  EC50: 0.078 µg/mL (≈ 0.278 µM)
[2]; Human betaherpesvirus 5, HEL, read-out: EC50 HCMV Davis strain (HEL cells)
  EC50: 0.054 µg/mL (≈ 0.193 µM)
Cowpox virus (Brighton) [3]
  activity against Cowpox virus (Brighton) in HEL cells: significant activity
Cowpox virus (Brighton) [3]; Cowpox virus, HEL, read-out: EC50 Cowpox virus Brighton
  EC50: 4.72 µg/mL (≈ 16.8 µM)
Orf virus (NZ2) [4]
  activity against Orf virus (NZ2) in HEL cells: significant activity
Orf virus (NZ2) [4]; Orf virus, HEL, read-out: EC50 Orf virus NZ2
  EC50: 0.15 µg/mL (≈ 0.535 µM)
[5]
  EC50: 0.61 µg/mL (≈ 2.18 µM)
[6]
  EC50: 0.54 µg/mL (≈ 1.93 µM)
[7]; read-out: antiviral activity (EC50) SV40 PML-1 strain EK
  EC50: 3.19 µg/mL (≈ 11.4 µM)
[7]; read-out: antiviral activity (EC50) SV40 PML-2 strain DAR
  EC50: 3.81 µg/mL (≈ 13.6 µM)
[7]; read-out: antiviral activity (EC50) SV40 strain A2895
  EC50: 3.22 µg/mL (≈ 11.5 µM)
Murine polyomavirus; read-out: antiviral activity (EC50) 2PTA2
  EC50: 3.35 µg/mL (≈ 12 µM)
Murine polyomavirus; read-out: antiviral activity (EC50) LID-1
  EC50: 4.98 µg/mL (≈ 17.8 µM)
Murine polyomavirus; read-out: antiviral activity (EC50) MN/RDE Toronto
  EC50: 1.94 µg/mL (≈ 6.92 µM)
Murine polyomavirus; read-out: antiviral activity (EC50) PTA
  EC50: 3.89 µg/mL (≈ 13.9 µM)
[8]; read-out: EC50 MCV 06/02
  EC50: 0.4 µg/mL (≈ 1.43 µM)
[8]; read-out: EC50 MCV 06/03
  EC50: 0.23 µg/mL (≈ 0.821 µM)
[8]; read-out: EC50 MCV 06/04
  EC50: 0.4 µg/mL (≈ 1.43 µM)
[8]; read-out: EC50 MCV 06/06
  EC50: 1.26 µg/mL (≈ 4.5 µM)
[9]; 2 h, read-out: EC50 Vaccinia (Lederle strain), Treatment from 2 h till end of experiment
  EC50: 2 µg/mL (≈ 7.14 µM)
[9]; read-out: EC50 Vaccinia (Lederle strain), Pretreatment (−16 hours)
  EC50: 1.59 µg/mL (≈ 5.67 µM)
[9]; read-out: EC50 Vaccinia (Lederle strain), Treatment 2-4 hours
  EC50: 5 µg/mL (≈ 17.8 µM)
[9]; read-out: EC50 Vaccinia (Lederle strain), Treatment 2-6 hours
  EC50: 3.98 µg/mL (≈ 14.2 µM)
[9]; read-out: EC50 Vaccinia (Lederle strain), Treatment 2-8 hours
  EC50: 6.3 µg/mL (≈ 22.5 µM)
HSV-1 (KOS)
  survival rate, HSV-1 (KOS) mice: 100%
Cowpox virus (Brighton) [10]
  survival, Cowpox virus (Brighton) mice model: 100%
Vaccinia Virus (WR)
  survival, Vaccinia Virus (WR) mice model: 100%
Pox tail lesions
  number of lesions on day 7: 0
[11]
  growth of tumors, human cervical carcinoma (FIG. 12): inhibit the growth of tumors
Vaccinia virus
  activity against Vaccinia virus in E6SM cell cultures: significant activity
[12]
  activity against Vaccinia virus (Lederle, Lister, W R and Copenhagen) in PHKs: significant activity
Cowpox virus (Brighton) [13]
  activity against Cowpox virus (Brighton) in PHKs: significant activity
Orf virus (NZ2) [14]
  activity against Orf virus (NZ2) in PHKs: significant activity
[15]
  decomposition in aqueous solution: slow decomposition
HEL cells
  Toxicity MCC (microscop): >100 µg/mL
HSB-2 cells
  Toxicity MCC (microscopy), HSB-2 cells: 16 µg/mL
[16]
  mean body weights of the mice: normal pattern
In vitro [17]
  CC50: 129 µg/mL (≈ 460 µM)
In vitro [18]
  CC50: 109 µg/mL (≈ 391 µM)
In vitro [19]
  CC50: > 100 µg/mL
